Counter-ions that a name gives are not always drawn.

The first experiment has as its system recombinant guanylate cyclase reporter cell line. Put plainly: Action on recombinant guanylate cyclase reporter cell line (MEC). It is filed as cell-based. Conditions: in some cases mean values obtained from individual determinations. As for the experimental part: B-2. Action on Recombinant Guanylate Cyclase Reporter Cell Line
The cellular action of the compounds according to the invention is determined on a recombinant guanylate cyclase reporter cell line, as described in F. Wunder et al., Anal. Biochem. 339, 104-112 (2005).
Representative values (MEC=minimal effective concentration) for the compounds according to the invention are shown in the following table (in some cases as mean values obtained from individual determinations): […]
As for `Cc1nc2c(OCc3c(F)cccc3F)cccn2c1C(=O)NC[C@@H]1CCCC[C@H]1O` (racemic) [Example 27, (rac)-trans-8-[(2,6-difluorobenzyl)oxy]-N-[(2-hydroxycyclohexyl)methyl]-2-methylimidazo[1,2-a]pyridine-3-carboxamide], the minimal effective concentration was 0.3 µM.

As for `Cc1nc2c(OCc3c(F)cccc3F)cccn2c1C(=O)NCCC(C)O` (racemic) [Example 28, (rac)-8-[(2,6-difluorobenzyl)oxy]-N-(3-hydroxybutyl)-2-methylimidazo[1,2-a]pyridine-3-carboxamide], the minimal effective concentration is 0.65 µM.

Take `CCC(O)CNC(=O)c1c(C)nc2c(OCc3c(F)cccc3F)cccn12` (racemic) [Example 30, (rac)-8-[(2,6-difluorobenzyl)oxy]-N-(2-hydroxybutyl)-2-methylimidazo[1,2-a]pyridine-3-carboxamide]: the minimal effective concentration was 0.3 µM.

Consider `CCC(CO)NC(=O)c1c(C)nc2c(OCC3CCCCC3)cccn12` (racemic) [Example 69, (rac)-8-(cyclohexylmethoxy)-N-(1-hydroxybutan-2-yl)-2-methylimidazo[1,2-a]pyridine-3-carboxamide formate], for which the minimal effective concentration was found to be 0.1 µM.

Consider `C=CCC(CO)NC(=O)c1c(C)nc2c(OCC3CCCCC3)cccn12` (racemic) [Example 70, (rac)-8-(cyclohexylmethoxy)-N-(1-hydroxypent-4-en-2-yl)-2-methylimidazo[1,2-a]pyridine-3-carboxamide], for which the minimal effective concentration was determined as 0.1 µM.

Regarding `Cc1nc2c(OCC3CCCCC3)cccn2c1C(=O)N[C@H]1CCC[C@@H]1O` (racemic) [Example 71, (rac)-8-(cyclohexylmethoxy)-N-[trans-2-hydroxycyclopentyl]-2-methylimidazo[1,2-a]-pyridine-3-carboxamide], the minimal effective concentration worked out at 0.1 µM.

Take `Cc1nc2c(OCC3CCCCC3)cccn2c1C(=O)N[C@@H]1CCCC[C@H]1O` (racemic) [Example 78, (rac)-8-(cyclohexylmethoxy)-N-[(trans)-2-hydroxycyclohexyl]-2-methylimidazo[1,2-a]-pyridine-3-carboxamide]: the minimal effective concentration was determined as 0.3 µM.

Regarding `Cc1nc2c(OCc3c(F)cccc3F)cccn2c1C(=O)NC(CO)CC(F)(F)F` (racemic) [Example 100, rac-8-[(2,6-Difluorobenzyl)oxy]-2-methyl-N-(4,4,4-trifluoro-1-hydroxybutan-2-yl)imidazo[1,2-a]-pyridine-3-carboxamide trifluoroacetate], the minimal effective concentration worked out at 0.03 µM.

As for `Cc1nc2c(OCc3c(F)cccc3F)cccn2c1C(=O)NC(CO)CCC(F)(F)F` (racemic) [Example 101, rac-8-[(2,6-difluorobenzyl)oxy]-2-methyl-N-(5,5,5-trifluoro-1-hydroxypentan-2-yl)-imidazo[1,2-a]pyridine-3-carboxamide trifluoroacetate], the minimal effective concentration was determined as 0.1 µM.

For the compound `Cc1nc2c(OCc3c(F)cccc3F)cccn2c1C(=O)NC(CO)c1ccc(F)cc1` (racemic) [Example 103, rac-8-[(2,6-difluorobenzyl)oxy]-N-[1-(4-fluorophenyl)-2-hydroxyethyl]-2-methylimidazo-[1,2-a]pyridine-3-carboxamide trifluoroacetate], the minimal effective concentration is 0.1 µM.

Take `Cc1nc2c(OCc3c(F)cccc3F)cccn2c1C(=O)N[C@@H](CO)c1ccccc1` (racemic) [Example 104, rac-8-[(2,6-difluorobenzyl)oxy]-N-[(1R)-2-hydroxy-1-phenylethyl]-2-methylimidazo[1,2-a]pyridine-3-carboxamide trifluoroacetate]: the minimal effective concentration amounted to 0.1 µM.

With `Cc1nc2c(OCc3c(F)cccc3F)cccn2c1C(=O)NCC(O)C(F)(F)F` (racemic) [Example 106, rac-8-[(2,6-difluorobenzyl)oxy]-2-methyl-N-(3,3,3-trifluoro-2-hydroxypropyl)imidazo[1,2-a]pyridine-3-carboxamide trifluoroacetate], the minimal effective concentration is 0.3 µM.

As to `Cc1nc2c(OCc3c(F)cccc3F)cccn2c1C(=O)NC(CO)C(F)(F)F` (racemic) [Example 110, rac-8-[(2,6-Difluorobenzyl)oxy]-2-methyl-N-(1,1,1-trifluoro-3-hydroxypropan-2-yl)imidazo[1,2-a]pyridine-3-carboxamide], the minimal effective concentration worked out at 0.3 µM.

For `Cc1nc2c(OCc3c(F)cccc3F)cccn2c1C(=O)NC(CO)CC(F)(F)F` (racemic) [Example 113, rac-8-[(2,6-Difluorobenzyl)oxy]-2-methyl-N-(4,4,4-trifluoro-1-hydroxybutan-2-yl)imidazo[1,2-a]-pyridine-3-carboxamide], the minimal effective concentration is on record as 0.03 µM.

On to `Cc1nc2c(OCc3c(F)cccc3F)cccn2c1C(=O)NC(CO)CCCC(F)(F)F` (racemic) [Example 114, rac-8-[(2,6-difluorobenzyl)oxy]-2-methyl-N(6,6,6-trifluoro-1-hydroxyhexan-2-yl)imidazo[1,2-a]pyridine-3-carboxamide], for which the minimal effective concentration worked out at 0.03 µM.

With `Cc1nc2c(OCc3c(F)cccc3F)cccn2c1C(=O)NC(CO)c1ccccn1` (racemic) [Example 119, rac-8-[(2,6-difluorobenzyl)oxy]-N-[2-hydroxy-1-(pyridin-2-yl)ethyl]-2-methylimidazo[1,2-a]-pyridine-3-carboxamide], the minimal effective concentration was 0.3 µM.

As for `Cc1nc2c(OCc3c(F)cccc3F)cccn2c1C(=O)NC(CO)c1ccc(S(C)(=O)=O)cc1` (racemic) [Example 120, rac-8-[(2,6-difluorobenzyl)oxy]-N-{2-hydroxy-1-[4-(methylsulphonyl)phenyl]ethyl}-2-methylimidazo[1,2-a]pyridine-3-carboxamide], the minimal effective concentration worked out at 1 µM.

As for `Cc1nc2c(OCc3c(F)cccc3F)cccn2c1C(=O)NC(CO)c1cccnc1` (racemic) [Example 124, rac-8-[(2,6-Difluorobenzyl)oxy]-N-[2-hydroxy-1-(pyridin-3-yl)ethyl]-2-methylimidazo[1,2-a]-pyridine-3-carboxamide], the minimal effective concentration stood at 0.3 µM.

For `Cc1nc2c(OCc3c(F)cccc3F)cccn2c1C(=O)NC(CC(F)(F)F)C(C)(C)O` (racemic) [Example 148, rac-8-[(2,6-Difluorobenzyl)oxy]-2-methyl-N-(1,1,1-trifluoro-4-hydroxy-4-methylpentan-3-yl)-imidazo[1,2-a]pyridine-3-carboxamide], the minimal effective concentration came out at 0.03 µM.

Regarding `Cc1nc2c(OCc3c(F)cccc3F)cccn2c1C(=O)NC(CCC(F)(F)F)C(C)(C)O` (racemic) [Example 149, rac-8-[(2,6-difluorobenzyl)oxy]-2-methyl-N-(6,6,6-trifluoro-2-hydroxy-2-methylhexan-3-yl)imidazo[1,2-a]pyridine-3-carboxamide], the minimal effective concentration is 0.1 µM.

Turning to `Cc1nc2c(OCc3c(F)cccc3F)cccn2c1C(=O)NC(CCCC(F)(F)F)C(C)(C)O` (racemic) [Example 150, rac-8-[(2,6-difluorobenzyl)oxy]-2-methyl-N-(7,7,7-trifluoro-2-hydroxy-2-methylheptan-3-yl)imidazo[1,2-a]pyridine-3-carboxamide], the minimal effective concentration was 0.03 µM.

As for `Cc1nc2c(OCc3c(F)cccc3F)cccn2c1C(=O)NC(c1ccc(Cl)cc1)C(C)(C)O` (racemic) [Example 151, rac-N-[1-(4-chlorophenyl)-2-hydroxy-2-methylpropyl]-8-[(2,6-difluorobenzyl)oxy]-2-methylimidazo[1,2-a]pyridine-3-carboxamide], the minimal effective concentration was 0.3 µM.

On to `Cc1nc2c(OCc3c(F)cccc3F)cccn2c1C(=O)NC(c1ccc(F)cc1)C(C)(C)O` (racemic) [Example 152, rac-8-[(2,6-difluorobenzyl)oxy]-N-[1-(4-fluorophenyl)-2-hydroxy-2-methylpropyl]-2-methylimidazo[1,2-a]pyridine-3-carboxamide], for which the minimal effective concentration turned out to be 0.3 µM.

As to `CCOCC(CO)NC(=O)c1c(C)nc2c(OCc3c(F)cccc3F)cccn12` (racemic) [Example 160, rac-8-[(2,6-Difluorobenzyl)oxy]-N-(1-ethoxy-3-hydroxypropan-2-yl)-2-methylimidazo[1,2-a]-pyridine-3-carboxamide], the minimal effective concentration stood at 0.3 µM.

Turning to `CCCOCC(CO)NC(=O)c1c(C)nc2c(OCc3c(F)cccc3F)cccn12` (racemic) [Example 162, rac-8-[(2,6-Difluorobenzyl)oxy]-N-(1-hydroxy-3-propoxypropan-2-yl)-2-methylimidazo[1,2-a]-pyridine-3-carboxamide], the minimal effective concentration is 0.3 µM.

Consider `Cc1nc2c(OCc3c(F)cccc3F)cccn2c1C(=O)NC(CO)COCC(C)C` (racemic) [Example 163, rac-8-[(2,6-Difluorobenzyl)oxy]-N-(1-hydroxy-3-isobutoxypropan-2-yl)-2-methylimidazo[1,2-a]-pyridine-3-carboxamide], for which the minimal effective concentration stood at 1 µM.

`Cc1cc(OCCC(C(F)(F)F)C(F)(F)F)c2nc(C)c(C(=O)NC(CCCC(F)(F)F)C(C)(C)O)n2c1` (racemic) [Example 170, rac-2,6-Dimethyl-N-(7,7,7-trifluoro-2-hydroxy-2-methylheptan-3-yl)-8-[4,4,4-trifluoro-3-(trifluoromethyl)butoxy]imidazo[1,2-a]pyridine-3-carboxamide]: the minimal effective concentration turned out to be 3 µM.

Still in this experiment, the particulars now being: in some cases mean values obtained from individual determinations, trifluoroacetate.
On to `Cc1nc2c(OCc3c(F)cccc3F)cccn2c1C(=O)NC(CO)CCCC(F)(F)F` (racemic) [Example 102, rac-8-[(2,6-difluorobenzyl)oxy]-2-methyl-N-(6,6,6-trifluoro-1-hydroxyhexan-2-yl)-imidazo[1,2-a]pyridine-3-carboxamide trifluoroacetate], for which the minimal effective concentration was 0.1 µM.

As usually defined, the minimal effective concentration is the smallest amount tested that counted as effective.
